Test results taken from the NIST ThermoML archive (doi:10.1021/je1011828).
± gives the expanded uncertainty stated by the source.

Tests used:
[1] = Liquid; for thermal conductivity: 101.33 kPa, Hot wire method; for viscosity / mass density: 101 kPa; for viscosity: Capillary tube (Ostwald / Ubbelohde) method; for mass density: Pycnometric method
[2] = wn = mass fraction of the nth substance listed; conditions: 101 kPa, Liquid; for viscosity: Capillary tube (Ostwald / Ubbelohde) method; for thermal conductivity: Hot wire method; for mass density: Pycnometric method

CCOC(F)(F)C(F)(F)C(F)(F)C(F)(F)F [1-ethoxy-1,1,2,2,3,3,4,4,4-nonafluorobutane]
[1]
Conditions	mass density [kg/m3]	thermal conductivity [W/m/K]	viscosity [mPa·s]
278.8 K	–	0.0712 ± 0.0029	–
297.8 K	1417 ± 1.4	–	0.6065 ± 0.0053
298.2 K	1417 ± 1.4	0.0662 ± 0.0027	0.6065 ± 0.0053
300.6 K	–	0.0644 ± 0.0026	–
314.1 K	–	0.0616 ± 0.0025	–
328.3 K	–	0.059 ± 0.0024	–
344.1 K	–	0.0563 ± 0.0023	–

CCOC(F)(F)C(F)(F)C(F)(F)C(F)(F)F [1-ethoxy-1,1,2,2,3,3,4,4,4-nonafluorobutane] + CCCCOCC
[2], 298.2 K
Conditions	mass density [kg/m3]	thermal conductivity [W/m/K]	viscosity [mPa·s]
w2 = 0	1417 ± 1.4	0.0662 ± 0.0027	0.6065 ± 0.0053
w2 = 0.1	1293.4 ± 1.3	0.0664 ± 0.0027	0.5458 ± 0.005
w2 = 0.2	1187.4 ± 1.2	0.0707 ± 0.0029	0.5042 ± 0.0048
w2 = 0.4	1024.9 ± 1.1	0.0774 ± 0.0031	0.4379 ± 0.0045
w2 = 0.6	907.4 ± 1	0.0921 ± 0.0037	0.4077 ± 0.0045
w2 = 0.8	813.7 ± 0.9	0.1085 ± 0.0044	0.397 ± 0.0047

CCOC(F)(F)C(F)(F)C(F)(F)C(F)(F)F [1-ethoxy-1,1,2,2,3,3,4,4,4-nonafluorobutane] + CO
[2], 297.8 K
Conditions	mass density [kg/m3]	thermal conductivity [W/m/K]	viscosity [mPa·s]
w2 = 0	1417 ± 1.4	–	0.6065 ± 0.0053
w2 = 0.1	1357 ± 1.3	0.0729 ± 0.0004	0.6034 ± 0.0052
w2 = 0.2	1294.4 ± 1.2	0.0794 ± 0.0004	0.6802 ± 0.0056
w2 = 0.4	1058.4 ± 1	0.0948 ± 0.0005	0.6089 ± 0.0048
w2 = 0.6	946.5 ± 0.9	0.1108 ± 0.0005	0.571 ± 0.0044
w2 = 0.8	852.6 ± 0.8	0.1326 ± 0.0006	0.5495 ± 0.0041

CCCCOCC [butyl ethyl ether]
[1]
Conditions	mass density [kg/m3]	thermal conductivity [W/m/K]	viscosity [mPa·s]
298.15 K	–	0.1258 ± 0.0051	–
298.2 K	743 ± 0.9	–	0.3868 ± 0.0049
299.62 K	–	0.125 ± 0.0051	–
312.17 K	–	0.1229 ± 0.005	–
333.39 K	–	0.1017 ± 0.0041	–
354.63 K	–	0.0949 ± 0.0038	–

CCCCOCC [butyl ethyl ether] + CCOC(F)(F)C(F)(F)C(F)(F)C(F)(F)F
[2], 298.2 K, w1 = 1
Conditions	mass density [kg/m3]	thermal conductivity [W/m/K]	viscosity [mPa·s]
–	743 ± 0.9	0.1258 ± 0.0051	0.3868 ± 0.0049

CO [methanol]
[1], 297.8 K
Conditions	mass density [kg/m3]	viscosity [mPa·s]
–	791.8 ± 0.7	0.5463 ± 0.004

CO [methanol] + CCOC(F)(F)C(F)(F)C(F)(F)C(F)(F)F
[2], 297.8 K, w1 = 1
Conditions	mass density [kg/m3]	viscosity [mPa·s]
–	791.8 ± 0.7	0.5463 ± 0.004
